The text below walks through data of publication PMC9374667 (Communications Biology, 2022).

For data set [1] the following is noted: cited from earlier work.
In a further data set the test system is Ikbke. The experiment in a line: RT-qPCR of Ikbke in eWAT and BAT. The format is in vivo. The conditions noted are these: db/db mice, both doses of BJ. An excerpt:
(§1) Total RNA was isolated from 3T3-L1 cells and adipose tissue homogenates using Trizol reagent (Invitrogen, Carlsbad, CA, USA). RNA concentration and purity were examined at 260/280 nm using a nanodrop spectrophotometer (NanoDrop One, Thermo Fisher Scientific, USA). The total RNA was reverse transcribed to cDNA using the EasyScript All-in-One First-Strand cDNA Synthesis SuperMix for qPCR kit (TransGen Biotech, Beijing, China). The quantitative reverse transcription polymerase chain reaction was performed using TransStart Top Green qPCR SuperMix (TransGen Biotech, Beijing, China) and an Applied Biosystems 7500 RealTime PCR System (Life Technologies, USA). Relative expression levels were normalized to gapdh expression and quantified using the 2^-ΔΔCt method. The primers were synthesized by Shanghai Sangon Biotech, and the detailed primer sequences were shown in Supplementary Table 5 in the supplementary materials.
(Real-time PCR tracks product formation cycle by cycle.)

A further data set deals with TBK1. The experiment in a line: RT-qPCR of Tbk1 in eWAT and BAT. The format is in vivo. The conditions noted are these: db/db mice, both doses of BJ.
Text: as §1

Data set [2] addresses T1, IKKε (Mus musculus, UniProt Q9R0T8).
T1 sequence (Q9R0T8 1-717): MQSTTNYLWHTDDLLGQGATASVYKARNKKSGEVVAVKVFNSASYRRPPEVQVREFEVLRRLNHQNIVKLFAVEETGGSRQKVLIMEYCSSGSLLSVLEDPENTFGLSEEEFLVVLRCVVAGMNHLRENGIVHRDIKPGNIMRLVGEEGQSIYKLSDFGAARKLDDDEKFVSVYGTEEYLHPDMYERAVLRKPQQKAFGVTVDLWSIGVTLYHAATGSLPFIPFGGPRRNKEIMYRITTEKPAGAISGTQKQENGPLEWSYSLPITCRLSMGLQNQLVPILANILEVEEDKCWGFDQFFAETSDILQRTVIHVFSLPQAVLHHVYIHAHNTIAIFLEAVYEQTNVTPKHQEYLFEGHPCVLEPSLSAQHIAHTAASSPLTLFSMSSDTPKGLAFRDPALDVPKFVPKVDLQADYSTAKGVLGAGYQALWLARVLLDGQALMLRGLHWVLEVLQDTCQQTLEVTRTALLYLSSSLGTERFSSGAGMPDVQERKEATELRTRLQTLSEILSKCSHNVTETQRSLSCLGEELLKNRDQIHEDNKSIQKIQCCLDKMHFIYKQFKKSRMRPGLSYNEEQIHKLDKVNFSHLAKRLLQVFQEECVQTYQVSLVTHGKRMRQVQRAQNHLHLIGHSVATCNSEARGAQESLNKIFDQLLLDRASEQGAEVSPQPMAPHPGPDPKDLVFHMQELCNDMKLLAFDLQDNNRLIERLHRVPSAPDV
As to the kind of experiment: 3T3-L1 adipocytes transfected with IKKε plasmid (western blotting, cAMP, glycerol, ISO). The format is cell-based, Murine. Also on record: endogenous in cells; host or cells: differentiated 3T3-L1 adipocytes; IKKε (western blotting, Figure 8h) / UCP1 (western blotting, Figure 8i) / UCP1 (western blotting, Figure 8j): scale not given here; cAMP levels (Figure 8k) / Glycerol release (Figure 8l): unit not given here. Here is the method:
(§2) Small interference RNA transfection (siRNA) was performed using 4 μM TBK1 siRNA (siTBK1) or 4 μM […]ε) or corresponding NC siRNA (siNC). The epididymal adipose tissue was dissected, the fresh adipose tissue was weighed and rapidly rinsed with PBS. The adipose tissue was cut and incubated with isoproterenol (10 μM) for 2 h, and homogenized in a cold cleavage buffer to prepare the adipose tissue homogenate. Then the homogenate was centrifuged at 12,000 × g at 4 °C for 15 min, and the supernatant was collected. […] Then the cells were lysed in a petri dish, scraped off, and centrifuged at 12,000 × g at 4 °C for 15 min before the supernatant was collected. […] And concentrations were further standardized according to protein concentration. The adipose tissue or 3T3-L1 adipocytes were homogenized by ultrasound in an ice-cold RIPA lysis buffer containing 1% PMSF and centrifuged at 12,000 × g at 4°C for 15 min to collect the supernatant. The BCA protein assay kit (Beyotime, Shanghai, China) was used to detect the total protein concentration. Proteins (20-30 μg) of the sample were separated by 10% SDS-PAGE gel and transferred onto polyvinylidene difluoride (PVDF) membranes. Then the PVDF membranes were blocked in 5% skim milk powder in TBS containing 1% Tween-20 (TBST) for 2 h at room temperature and washed with TBST for 3 times. […] After washing, the membranes were incubated with horseradish peroxidase-conjugated secondary antibodies (in 5% skim milk powder) for 1 h at room temperature. Finally, the membranes were treated with enhanced chemiluminescence agents (Tanon, Shanghai, China) and the signals were monitored using the Tanon 5200 multi chemiluminescent imaging system (Tanon, Shanghai, China).
In general terms: Immunoblotting shows a protein as a band on a membrane.

For data set [3], the target named is T1, IKKε. As to the kind of experiment: IKKε-knockdown 3T3-L1 adipocytes (siRNA; western blotting, cAMP, glycerol, ISO). Details: endogenous in cells; host or cells: differentiated 3T3-L1 adipocytes. Conditions: for Glycerol (Figure 9l) / UCP1 (western blotting, Figure 9J) / cAMP (Figure 9k): 10μM BJ +. Format: cell-based, Murine. Here is the method:
as §2

[4] abbreviates: 3T3-L1 adipocytes transfected with IKKε plasmid, 24 h of BJ treatment.

“And” between values parts separate entries of the source, which are not always exact repeats. Identical values can stand only once. Like-named read-outs stand apart in the source and are kept apart here.

As for `COc1ccc2cc3[n+](cc2c1OC)CCc1cc2c(cc1-3)OCO2` [BBR, Berberine chloride dihydrate], the “Maximum plasma concentration (Cmax)” value in data set [1] (acute oral BBR (400 mg) provocation tests) was “approximately 0.4 ng/ml”. Besides, the “Share of the oral dose that enters the systemic circulation” value in data set [1] (human subjects) is reported as “less than 5%”. The “Steady-state concentration in human plasma” value in data set [1] (oral BBR 300 mg/d for seven days) was “approximately 0.3 ng/ml”.
Consider `CC(C)Cc1ccc(C(C)C(=O)[O-])cc1.COc1ccc2cc3[n+](cc2c1OC)CCc1cc2c(cc1-3)OCO2.O.O.O.O` [BJ, berberine-ibuprofen], for which the “Ikbke mRNA expression in BAT” value with Ikbke is given as “had no effect”. Besides, in the data set with Ikbke, the “mRNA level of IKKε (Ikbke) in eWAT” value is given as “significantly reduced”. In addition, the “Tbk1 mRNA expression in BAT” value in the data set on TBK1 is “had no effect”. In addition, in the data set on TBK1, the “mRNA level of TBK1 (Tbk1) in eWAT” value is recorded as “significantly reduced”. Besides, the “IKKε (western blotting, Figure 8h)” value at IKKε [2] is 0.3064 and 0.3337 and 0.413; on IKKε [2] (3μg IKKε+10μM BJ), 0.3573 and 0.3516 and 0.3871. For the same compound, the “UCP1 (western blotting, Figure 8i)” value was 0.8819 and 0.7296 and 0.665 on IKKε [2] (3μg IKKε+10μM BJ); 0.7179 and 0.7672 and 0.7892 on IKKε [2] (10μM BJ). Also, at IKKε [2] (setting [4]), the IKKε protein level result is on record as “significantly decreased”. Besides, the UCP1 protein level entry at IKKε [2] (setting [4]) is given as “significantly increased”. Moreover, the “Glycerol release (Figure 8l)” value is 86.9484 and 84.4172 and 92.0109 at IKKε [2] (BJ); 68.3861 and 70.0736 and 61.6362 on IKKε [2] (BJ+IKKε); 156.135 and 153.604 and 151.073 at IKKε [2] (ISO+BJ); 123.229 and 124.917 and 128.292 at IKKε [2] (ISO+BJ+IKKε). Also, the “UCP1 (western blotting, Figure 8j)” value on IKKε [2] (BJ) was 0.7729 and 0.7093 and 0.8167; on IKKε [2] (BJ+IKKε) it was 0.4841 and 0.4628 and 0.4991; on IKKε [2] (ISO+BJ) it was 0.9653 and 0.8916 and 1.268; at IKKε [2] (ISO+BJ+IKKε) it was 0.6833 and 0.6687 and 0.7939. For the same compound, the “cAMP levels (Figure 8k)” value was 0.1832 and 0.1783 and 0.1808 at IKKε [2] (BJ); 0.1738 and 0.178 and 0.1687 on IKKε [2] (BJ+IKKε); 0.3323 and 0.3162 and 0.3269 at IKKε [2] (ISO+BJ); 0.2266 and 0.2216 and 0.2337 on IKKε [2] (ISO+BJ+IKKε). Further, at IKKε [2] (transfected 3T3-L1 adipocytes, 10 µM BJ), the “Inhibition of ISO efficacy (UCP1, glycerol release, cAMP) by IKKε overexpression” value is “ameliorated”. Further, the “IKKϵ (western blotting, Figure 9h)” value on IKKε [3] (10μM BJ) is 0.1875 and 0.2278 and 0.214; on IKKε [3] (siIKKϵ+10μM BJ), 0.09311 and 0.1256 and 0.1406. Also, the “UCP1 (western blotting, Figure 9i)” value is 0.3644 and 0.4778 and 0.4436 on IKKε [3] (10μM BJ); 0.4915 and 0.4988 and 0.5593 on IKKε [3] (siIKKϵ+10μM BJ). For the same compound, at IKKε [3] (3T3-L1 adipocytes treated with BJ alone), the “Expression of UCP1” value is reported as “significantly increased”. Also, at IKKε [3] (IKKε-knockdown 3T3-L1 adipocytes treated with BJ, vs IKKε-knockdown), the UCP1 expression result is “not significantly altered”. The “cAMP accumulation, glycerol release, and UCP1 expression” value at IKKε [3] (IKKε-knockdown 3T3-L1 adipocytes, ISO stimulation, BJ vs IKKε-knockdown) is “did not significantly increase the above changes”; at IKKε [3] (ISO-stimulated 3T3-L1 adipocytes, BJ treatment alone), “significantly increased cAMP accumulation, glycerol release, and UCP1 expression”. For the same compound, the “Glycerol (Figure 9l)” value at IKKε [3] (siIKKϵ +, ISO +) is 176.805 µmol/L and 182.076 µmol/L and 176.254 µmol/L; at IKKε [3] (siIKKϵ +, ISO -) it was 89.0822 µmol/L and 96.3611 µmol/L and 91.9299 µmol/L; at IKKε [3] (siIKKϵ -, ISO +), 156.977 µmol/L and 167.166 µmol/L and 170.891 µmol/L; on IKKε [3] (siIKKϵ -, ISO -), 81.5401 µmol/L and 78.1125 µmol/L and 83.122 µmol/L. In addition, the “UCP1 (western blotting, Figure 9J)” value is 0.785 and 0.7814 and 0.8472 on IKKε [3] (siIKKϵ +, ISO +); 0.6376 and 0.6905 and 0.6507 on IKKε [3] (siIKKϵ +, ISO -); 0.6574 and 0.7704 and 0.6754 at IKKε [3] (siIKKϵ -, ISO +); 0.5736 and 0.639 and 0.5661 on IKKε [3] (siIKKϵ -, ISO -). The “cAMP (Figure 9k)” value at IKKε [3] (siIKKϵ +, ISO +) is 0.4194 pmol/mg protein and 0.4185 pmol/mg protein and 0.3432 pmol/mg protein and 0.371 pmol/mg protein and 0.3866 pmol/mg protein and 0.405 pmol/mg protein; on IKKε [3] (siIKKϵ +, ISO -), 0.2155 pmol/mg protein and 0.2223 pmol/mg protein and 0.1908 pmol/mg protein and 0.2097 pmol/mg protein and 0.2158 pmol/mg protein and 0.2252 pmol/mg protein; at IKKε [3] (siIKKϵ -, ISO +), 0.362 pmol/mg protein and 0.3606 pmol/mg protein and 0.3205 pmol/mg protein and 0.3322 pmol/mg protein and 0.3416 pmol/mg protein and 0.3545 pmol/mg protein; at IKKε [3] (siIKKϵ -, ISO -), 0.1756 pmol/mg protein and 0.1959 pmol/mg protein and 0.2053 pmol/mg protein and 0.1755 pmol/mg protein and 0.1805 pmol/mg protein and 0.1893 pmol/mg protein.
